Measured values taken from US20170342136A1, “MONOCLONAL ANTIBODY AGAINST MURAMYL PEPTIDES IN PREVENTION AND TREATMENT OF IMMUNE-MEDIATED DISEASES” (Agency for Science, Technology and Research, priority 2015, published 2017).

How the values were obtained:
Escherichia coli = assay: MPs in culture supernatant with or without amoxicillin, competitive ELISA using 2E7; format: cell-based; conditions: 40 μg per ml amoxicillin added at OD600=1.5
Protocol: (§1) The standard curve was used to determine the peptidoglycan concentration in a sample. […] Both bacteria were grown to OD600=1.5. Each culture was divided into two, and one treated with 40 μg/ml amoxicillin (Amx) and the other untreated. Aliquots were collected at the indicated times and the amount of MPs in the supernatant was determined by competitive ELISA. […] After removing unbound antibodies by PBS washes, the cells were incubated with a FITC-labeled anti-mouse IgG Ab before fluorescence microscopic examination.
(§2) For this test, Gram-positive bacterium Staphylococcus aureus, which has a thick peptidoglycan layer, and Gram-negative Escherichia coli, which has a thin peptidoglycan layer, were selected and grown in the presence or absence of amoxicillin. The culture was grown to a density of OD600=1.5 and then divided into two equal aliquots. To one aliquot, amoxicillin was added to a final concentration of 40 μg per ml, and to the other aliquot, no drug was added. Both cultures were allowed to continue to grow. Aliquots of cultures were collected at timed intervals and cells were removed by centrifugation. The amount of MPs in the supernatant was determined by competitive ELISA using 2E7.

Staphylococcus aureus = assay: as above; format: cell-based; conditions: 40 μg per ml amoxicillin added at OD600=1.5
Protocol: as §1, §2

[1] = Blood MP level after oral amoxicillin, competitive ELISA using 2E7; format: in vivo, mice; conditions: 100 mg/kg oral at 12-h intervals, 4 h after each feeding
Protocol: Amoxicillin was administered orally to 50 mice at 12-h intervals and three mice were sacrificed every 4 h to collect blood for peptidoglycan quantification by ELISA. […] Serial blood samples were taken. Time for blood draw and IV injection are indicated.
The MP level in serum was determined by competitive ELISA using an example of the antibody of the present disclosure, i.e. 2E7.

[2] = tested on: Collagen Induced Arthritis (CIA) mouse model; assay: Collagen Induced Arthritis (CIA) mouse model with implanted osmotic pump releasing MDP; format: in vivo, DBA/1J mice
Protocol: (A) illustrates the subcutaneous implantation of an osmotic pump loaded with 200 µl of 5 mg/ml MDP and released at a rate of 0.25μ1/hr onto the back of a mouse.
DBA/1J mice were induced to develop arthritis by immunization with an emulsion of complete Freund's adjuvant and type II collagen, and each mouse also carried an implanted pump as described in FIG. 5 that releases either PBS or MDP at 0.25 μl/hr.

Row | SMILES | molecules in culture medium that inhibit 2E7 binding to MDP (Escherichia coli) | molecules in culture medium that inhibit 2E7 binding to MDP (Staphylococcus aureus) | increase in the blood MP level [1] | clinical paw scores ([2]; increase in MDP concentration, time dependent, n=4) | development of rheumatoid arthritis ([2]; pump releasing MDP at 0.25 μl/hr vs PBS)
1 | CC1(C)S[C@@H]2[C@H](NC(=O)[C@H](N)c3ccc(O)cc3)C(=O)N2[C@H]1C(=O)O [amoxicillin] | sharp increase | sharp increase | 20-60% |  | 
2 | CC(=O)N[C@@H]1[C@@H](O[C@H](C)C(=O)N[C@@H](C)C(=O)N[C@H](CCC(=O)O)C(N)=O)[C@H](O)[C@@H](CO)O[C@H]1O [MDP] |  |  |  | increased clinical paw scores | promoted the development of rheumatoid arthritis
